Among the data in ChEMBL document CHEMBL5543105, “Total synthesis and structural modification of the dibenzylbutane lignan LCA as a potent anti-inflammatory agent against LPS-induced acute lung injury” (Eur J Med Chem, 2024) are Activity values, retold here.

Data set [1] deals with Mus musculus. The data set can be described thus: Anti-inflammatory activity against LPS-induced acute […] injury C57BL/6 mouse model assessed as reduction in inflammatory cell infiltration at 20 mg/kg, ip administered for 1 hr and measured after 6 hrs by H and E staining based analysis. Format: functional, organism-based. The following applies: time 7.0 hrs.
Data set [2] concerns Mus musculus. Description: Anti-inflammatory activity against LPS-induced acute […] injury C57BL/6 mouse model assessed as improvement in alveolar wall thickness at 20 mg/kg, ip administered for 1 hr and measured after 6 hrs by H and E staining based analysis. Format: functional, organism-based. Particulars: time 7.0 hrs.
Data set [3] has as its system Mus musculus. The data set can be described thus: Anti-inflammatory activity against LPS-induced acute […] injury C57BL/6 mouse model assessed as improvement in pulmonary hemorrhage at 20 mg/kg, ip administered for 1 hr and measured after 6 hrs by H and E staining based analysis. Format: functional, organism-based. The following applies: time 7.0 hrs.
Data set [4] has as its system Mus musculus. Description: Anti-inflammatory activity against LPS-induced acute […] injury C57BL/6 mouse model assessed as reduction in wet weight to dry weight ratio in lung at 20 mg/kg, ip administered for 1 hr and measured after 6 hrs. Format: functional, organism-based. The following applies: time 7.0 hrs.
Data set [5] has as its system Mus musculus. Description: Anti-inflammatory activity against LPS-induced acute […] injury C57BL/6 mouse model assessed as improvement in alveolar structure at 20 mg/kg, ip administered for 1 hr and measured after 6 hrs by H and E staining based analysis. The following applies: time 7.0 hrs. The data set is classed as functional, organism-based.
The test system of data set [6] is Mus musculus. The data set can be described thus: Anti-inflammatory activity against LPS-induced acute […] injury C57BL/6 mouse model assessed as reduction in alveolar thickness in lung at 20 mg/kg, ip administered for 1 hr and measured after 6 hrs by H and E staining based analysis. The data set is classed as functional, organism-based. The following applies: time 7.0 hrs.

Data set [7] relates to Mus musculus. The data set can be described thus: Anti-inflammatory activity against LPS-induced acute […] injury C57BL/6 mouse model assessed as improvement in destruction of lung structure at 20 mg/kg, ip administered for 1 hr and measured after 6 hrs by H and E staining based analysis. Format: functional, organism-based. Particulars: time 7.0 hrs.
The subject of data set [8] is Mus musculus. The data set can be described thus: Anti-inflammatory activity against LPS-induced acute […] injury C57BL/6 mouse model assessed as improvement in lung edema at 20 mg/kg, ip administered for 1 hr and measured after 6 hrs by H and E staining based analysis. Format: functional, organism-based. The following applies: time 7.0 hrs.
Data set [9] deals with Mus musculus. The data set can be described thus: Anti-inflammatory activity against LPS-induced acute […] injury C57BL/6 mouse model assessed as reduction in lung edema at 20 mg/kg, ip administered for 1 hr and measured after 6 hrs by H and E staining based analysis. The data set is classed as functional, organism-based. The following applies: time 7.0 hrs.
Data set [10] concerns Mus musculus. The data set can be described thus: Anti-inflammatory activity against LPS-induced acute […] injury C57BL/6 mouse model assessed as reduction in bleeding points in lung at 20 mg/kg, ip administered for 1 hr and measured after 6 hrs by H and E staining based analysis. Format: functional, organism-based. Particulars: time 7.0 hrs.
For data set [11], the system named is Mus musculus. The data set can be described thus: Anti-inflammatory activity against LPS-induced acute […] injury C57BL/6 mouse model assessed as reduction in congestion in lung at 20 mg/kg, ip administered for 1 hr and measured after 6 hrs by H and E staining based analysis. Format: functional, organism-based. Particulars: time 7.0 hrs.
The test system of data set [12] is RAW264.7. The data set can be described thus: Anti-inflammatory activity against mouse RAW264.7 cells assessed as reduction in LPS-induced TNF-alpha level pretreated with compound for 1 hr followed by LPS-induction and measured after 24 hrs by ELISA analysis. The data set is classed as functional, cell-based. Particulars: dose 1.25-20 µM, time 25.0 hrs. (In an ELISA, binding on a coated surface is turned into a signal by an enzyme label.)

The subject of data set [13] is RAW264.7. Description: Anti-inflammatory activity against mouse RAW264.7 cells assessed as inhibition of LPS-induced nuclear translocation at 10 to 20 uM pretreated with compound for 1 hr followed by LPS-induction and measured after 4 hrs by DAPI staining based fluorescence microscopic analysis. Format: functional, cell-based. The following applies: dose 10-20 µM, time 5.0 hrs.

The test system of data set [14] is RAW264.7. Description: Anti-inflammatory activity against mouse RAW264.7 cells assessed as inhibition of LPS-stimulated nitric oxide production at 2.5 to 20 uM incubated for 5 hrs by Griess reagent based microplate reader analysis. Format: functional, cell-based. Particulars: dose 2.5-20 µM. In general terms: Griess reagent forms a coloured azo dye with nitrite.

The test system of data set [15] is RAW264.7. The data set can be described thus: Anti-inflammatory activity against mouse RAW264.7 cells assessed as reduction in LPS-induced IL-1beta level pretreated with compound for 1 hr followed by LPS-induction and measured after 24 hrs by ELISA analysis. Particulars: dose 1.25-20 µM, time 25.0 hrs. Format: functional, cell-based.
Data set [16] deals with RAW264.7. The data set can be described thus: Anti-inflammatory activity against mouse RAW264.7 cells assessed as reduction in NO level pretreated with compound for 1 hr followed by LPS-induction and measured after 24 hrs. Particulars: dose 1.25-20 µM, time 25.0 hrs. Format: functional, cell-based.
For data set [17], the system named is Mus musculus. Description: Anti-inflammatory activity against LPS-induced acute […] injury C57BL/6 mouse model assessed as decrease in TNF-alpha mRNA expression in lung at 20 mg/kg, ip administered for 1 hr and measured after 6 hrs by RT-qPCR analysis. The data set is classed as functional, organism-based. Particulars: time 7.0 hrs. In general terms: In qPCR the cycle at which signal appears reflects the starting amount.

Data set [18] concerns Mus musculus. The data set can be described thus: Anti-inflammatory activity against LPS-induced acute […] injury C57BL/6 mouse model assessed as reduction in IL-1beta level in BALF at 20 mg/kg, ip administered for 1 hr and measured after 6 hrs by ELISA analysis. Particulars: time 7.0 hrs. Format: functional, organism-based.
Data set [19] relates to RAW264.7. The data set can be described thus: Anti-inflammatory activity against mouse RAW264.7 cells assessed as inhibition of LPS-induced NO production at 20 uM incubated for 24 hrs. Format: functional, cell-based.
In data set [20] the test system is Mus musculus. The data set can be described thus: Anti-inflammatory activity against LPS-induced acute […] injury C57BL/6 mouse model assessed as decrease in IL-6 mRNA expression in lung at 20 mg/kg, ip administered for 1 hr and measured after 6 hrs by RT-qPCR analysis. Format: functional, organism-based. The following applies: time 7.0 hrs.
For data set [21], the system named is RAW264.7. Description: Anti-inflammatory activity against mouse RAW264.7 cells assessed as inhibition of LPS-induced IL-1beta mRNA expression pretreated with compound for 1 hr followed by LPS-induction and measured after 24 hrs by RT-qPCR analysis. Format: functional, cell-based. Particulars: dose 10-20 µM, time 25.0 hrs.
For data set [22], the system named is RAW264.7. Description: Anti-inflammatory activity against mouse RAW264.7 cells assessed as inhibition of LPS-induced IL-6 mRNA expression pretreated with compound for 1 hr followed by LPS-induction and measured after 24 hrs by RT-qPCR analysis. Format: functional, cell-based. The following applies: dose 10-20 µM, time 25.0 hrs.
Data set [23] concerns RAW264.7. Description: Cytotoxicity against mouse RAW264.7 cells upto 20 uM incubated for 24 hrs by CCK-8 assay. The data set is classed as toxicity, cell-based. The following applies: raw264.7, 24 h.
Data set [24] concerns Mus musculus. The data set can be described thus: Anti-inflammatory activity against LPS-induced acute […] injury C57BL/6 mouse model assessed as reduction in TNF-alpha level in BALF at 20 mg/kg, ip administered for 1 hr and measured after 6 hrs by ELISA analysis. Format: functional, organism-based. The following applies: time 7.0 hrs.
Data set [25] deals with RAW264.7. Description: Anti-inflammatory activity against mouse RAW264.7 cells assessed as inhibition of LPS-induced p65 phosphorylation at 10 to 20 uM pretreated with compound for 1 hr followed by LPS-induction and measured after 4 hrs by Western blot analysis. Particulars: dose 10-20 µM, time 5.0 hrs. Format: functional, cell-based.
The subject of data set [26] is Mus musculus. The data set can be described thus: Anti-inflammatory activity against LPS-induced acute […] injury C57BL/6 mouse model assessed as reduction in TNF-alpha level in serum at 20 mg/kg, ip administered for 1 hr and measured after 6 hrs by ELISA analysis. The data set is classed as functional, organism-based. Particulars: time 7.0 hrs.
In data set [27] the test system is Mus musculus. Description: Anti-inflammatory activity against LPS-induced acute […] injury C57BL/6 mouse model assessed as reduction in IL-6 level in serum at 20 mg/kg, ip administered for 1 hr and measured after 6 hrs by ELISA analysis. Format: functional, organism-based. Particulars: time 7.0 hrs.
Data set [28] deals with RAW264.7. The data set can be described thus: Anti-inflammatory activity against mouse RAW264.7 cells assessed as reduction in LPS-induced IL-6 level pretreated with compound for 1 hr followed by LPS-induction and measured after 24 hrs by ELISA analysis. The data set is classed as functional, cell-based. The following applies: dose 1.25-20 µM, time 25.0 hrs.
Data set [29] concerns RAW264.7. The data set can be described thus: Anti-inflammatory activity against mouse RAW264.7 cells assessed as inhibition of LPS-induced TNF-alpha mRNA expression pretreated with compound for 1 hr followed by LPS-induction and measured after 24 hrs by RT-qPCR analysis. The data set is classed as functional, cell-based. Particulars: dose 10-20 µM, time 25.0 hrs.
Data set [30] has as its system Mus musculus. Description: Anti-inflammatory activity against LPS-induced acute […] injury C57BL/6 mouse model assessed as reduction in IL-6 level in BALF at 20 mg/kg, ip administered for 1 hr and measured after 6 hrs by ELISA analysis. The data set is classed as functional, organism-based. The following applies: time 7.0 hrs.
Data set [31] concerns RAW264.7. The data set can be described thus: Anti-inflammatory activity against mouse RAW264.7 cells assessed as reduction in LPS-induced IkappaBalpha level at 10 to 20 uM pretreated with compound for 1 hr followed by LPS-induction and measured after 4 hrs by Western blot analysis. Format: functional, cell-based. Particulars: dose 10-20 µM, time 5.0 hrs.
Data set [32] has as its system Mus musculus. The data set can be described thus: Anti-inflammatory activity against LPS-induced acute […] injury C57BL/6 mouse model assessed as decrease in IL-1beta mRNA expression in lung at 20 mg/kg, ip administered for 1 hr and measured after 6 hrs by RT-qPCR analysis. Format: functional, organism-based. The following applies: time 7.0 hrs.
The subject of data set [33] is Mus musculus. The data set can be described thus: Anti-inflammatory activity against LPS-induced acute […] injury C57BL/6 mouse model assessed as reduction in IL-1beta level in serum at 20 mg/kg, ip administered for 1 hr and measured after 6 hrs by ELISA analysis. Format: functional, organism-based. The following applies: time 7.0 hrs.

Active and inactive are the calls of the source. The calls are words filed in the database; no cut-off is given here.

As to `COc1cc(/C=C/C(=O)OC[C@H](Cc2cc(OC)c(O)c(OC)c2)[C@@H](COC(=O)/C=C/c2ccc(O)c(OC)c2)Cc2cc(OC)c(O)c(OC)c2)ccc1O`, the result with Mus musculus [1], in the data set on Mus musculus [2], with Mus musculus [3], in the data set with Mus musculus [4], in the data set with Mus musculus [5] and in the data set with Mus musculus [6] was Active. Moreover, the result with Mus musculus [7], with Mus musculus [8], with Mus musculus [9], with Mus musculus [10] and with Mus musculus [11] was Active.
`COc1cc(C[C@H](C(=O)N2CCN(c3cccc(C)c3C)CC2)[C@@H](Cc2cc(OC)c(O)c(OC)c2)C(=O)N2CCN(c3cccc(C)c3C)CC2)cc(OC)c1O`: the outcome with Mus musculus [1], in the data set on Mus musculus [2], with RAW264.7 [13], with RAW264.7 [14], in the data set with Mus musculus [17] and in the data set with Mus musculus [3] was Active. The outcome in the data set on Mus musculus [18], in the data set on Mus musculus [4], with RAW264.7 [19], in the data set on Mus musculus [20], in the data set with Mus musculus [5] and with Mus musculus [24] was Active. For the same compound, the outcome in the data set on RAW264.7 [25], with Mus musculus [6], in the data set with Mus musculus [26], in the data set with Mus musculus [27], in the data set with Mus musculus [7] and in the data set with Mus musculus [8] was Active. The outcome with Mus musculus [30], in the data set on Mus musculus [9], with RAW264.7 [31], in the data set on Mus musculus [10], in the data set on Mus musculus [32] and in the data set with Mus musculus [11] was Active. Also, the result with Mus musculus [33] was Active. In addition, the Activity result is “Dose-Dependent Effect” with RAW264.7 [12]; “Dose-Dependent Effect” in the data set with RAW264.7 [15]; “Dose-Dependent Effect” in the data set on RAW264.7 [16]; “Dose-Dependent Effect” in the data set on RAW264.7 [21]; “Dose-Dependent Effect” in the data set on RAW264.7 [22]; “Non-Toxic” in the data set on RAW264.7 [23]. In addition, the Activity entry in the data set on RAW264.7 [28] and in the data set with RAW264.7 [29] was “Dose-Dependent Effect” in each case.
